What is called EC50 is the midpoint of the concentration-response curve. Low values mean higher potency in that assay, high ones lower potency in that assay. The term CC50 denotes the concentration that lowers cell viability or growth by half. The term melting point denotes the temperature, or range, at which the solid turns liquid.

Converted amounts (≈) assume the structure as drawn. Where two headings read alike, the source gives them in different places.

These results are taken from patent US7534871B2, “Preparation and use of carbohydrate-based bicyclic ring structures with antimicrobial and cytostatic activity” (Kemin Pharma B.V.B.A., priority 2004, dated 2009).

The subject of one series is HSV-2 (G). Kind of series: Anti-viral activity: HSV-2-induced cytopathicity in human embryo fibroblast E6SM cell cultures. It is filed as cell-based, herpes simplex virus (HSV). As to conditions: Human alphaherpesvirus 2, 50%. In general terms: Damage to the host cells serves as the signal in cytopathic effect assays.
Series [1] concerns Microsporum gypseum IHEM 3999 - ATCC 14683. Kind of series: Anti-fungal activity, Bioscreen C growth curve: Microsporum gypseum (mold). It is filed as cell-based. Conditions: Nannizzia gypsea, ATCC14683, 120 h; 25 PPM; 25° C., 5 days; negative control = 100; read-out: % of growth at a dose of 25 PPM compared to the negative control, Microsporum gypseum IHEM 3999 - ATCC 14683. Here is the method: (§1) For the determination of the anti-bacterial and anti-fungal activity the Bioscreen C Analyser Labsystems, Finland, was used. This is an automated reader-incubator. It measures growth continuously by vertical photometry (optical density), processes the data and provides a print out of the results. The area under the growth curve is automatically determined via the Biolink software.
The inoculum size of the mould is standardized to 0.4-5.0×10^4 CFU/ml.
(§2) For bacteria, the 100-honey-well plates containing test chemical, Mueller-Hinton broth and inoculum (=sample) are incubated at 35° C. for 16 hours. Also wells without inoculum are incubated (=blanco). Yeasts are incubated 35° C. for 24 hours in RPMI 1640+MOPS buffer at 165 mM. Moulds also in RPMI 1640+MOPS buffer at 165 mM are incubated 25° C. for 5 days. All micro-organisms are screened against a known concentration of the reference antibiotics or antimycotics such as vancomycin, penicillin G, gentamicin or amphotericin B. The growth curve and the area under the growth curve can be determined using the Biolink software; this is illustrated in FIG. 1.
(§3) The area of the blanco is subtracted from the area of the sample, this number (delta) gives us an indication of the biological activity of the molecules tested and can be expressed as a % of growth at a specific dose compared to a negative control that has a value of 100, illustrated in FIG. 2. Screening of each dose of a specific compound is repeated 5 times. The dose used for all new molecules in all tests is 25 PPM or 25 μg/ml.
(§4) In Table 5 the anti-fungal activity is given for the new molecules. The micro-organisms used were Candida albicans (a typical yeast) and Microsporum gypseum (a typical mold).
(§5) Also for the determination of the anti-fungal activity the Bioscreen C Analyser Labsystems Oy, Finland was used. It measures growth continuously by vertical photometry (optical density), processes the data and provides a print out of the results. The area under the growth curve is automatically determined via the Biolink software.
(§6) The inoculum size of the yeast is standardized to 0.5-2.5×10^3 CFU/ml. The inoculum size of the mould is standardized to 0.4-5.0×10^4 CFU/ml. Yeasts are incubated 35° C. for 24 hours in RPMI 1640+MOPS buffer at 165 mM. Moulds also in RPMI 1640+MOPS buffer at 165 mM are incubated 25° C. for 5 days.
(§7) As a control, all micro-organisms are screened against some reference antibiotics with known MIC. Screening of each dose of a specific compound is repeated 5 times.

Series [2] can be described thus: Cytotoxicity: inhibition of HEL cell growth (CC50). The format is cell-based. As to conditions: human; concentration required to reduce cell growth by 50%; HEL cells, three days. How it is done:
The medium was then replaced by MEM containing various concentrations of the test compound. After three days incubation at 37° C., when the cell monolayer was 70% confluent, the cell number was determined with the Coulter counter. The minimum cytotoxic concentration was defined as the concentration required to reduce cell growth by 50%.

The subject of series [3] is human T-lymphocyte cells (CEM/0). Description: Cytostatic activity: inhibition of proliferation of CEM/0 cells. It is filed as cell-based. As to conditions: CCRF-CEM, read-out: IC50 CEM/0. How it is done:
(§8) The compounds were tested for anti-tumor activity via the inhibitory effects on the proliferation of murine leukemia cells (L1210/0), murine mammary carcinoma cells (FM3A), human T-lymphocyte cells (Molt4/C8, CEM/0) and human cervix carcinoma cells (HeLa).

Series [4] relates to Candida albicans IHEM 10284 - ATCC 24433. Description: Anti-fungal activity, Bioscreen C growth curve: Candida albicans (yeast). It is filed as cell-based. As to conditions: for activity at 25 ppm: Candida albicans, ATCC24433, 35° C., 24 hours, negative control = 100, read-out: % of growth at a dose of 25 PPM compared to the negative control, Candida albicans IHEM 10284 - ATCC 24433. How it is done:
as §1
The inoculum size of the yeast is standardized to 0.5-2.5×10^3 CFU/ml.
as §2, §3, §4, §5, §6, §7

The test system of a further series is HEL cells. Kind of series: Cytotoxicity: alteration of cell morphology (MCC). As to conditions: minimum cytotoxic concentration that causes a microscopically detectable alteration of cell morphology. The format is cell-based, human.
The test system of series [5] is S. typhimurium ATTC700408. Kind of series: Anti-bacterial activity, Bioscreen C growth curve: S. typhimurium. As to conditions: Salmonella enterica, LMG16217 / TYPHIMURIUM, 35° C., 16 hours, negative control = 100, read-out: % of growth at 25 PPM compared to the negative control, S. typhimurium ATTC700408 LMG16217. The format is cell-based. Here is the method:
as §1
The inoculum size of the bacteria is standardized to approximately 5×10^5 CFU/ml.
as §2, §3
In Table 4 the results of the anti-bacterial activity is given for the new molecules. The micro-organisms used are Staphylococcus aureus, MRSA, VRE, Enterococcus faecalis, Salmonella typhimurium and Pseudomonas aeruginosa.

Series [6] concerns L1210/0, FM3A, Molt4/C8, CEM/0 and HeLa cells. Kind of series: Cytostatic studies, conclusion over the panel of cell lines. It is filed as cell-based, murine and human. Conditions: conclusion in text on Table 3. Here is the method:
as §8

The next series relates to CMV Davis strain. Description: Anti-CMV activity: plaque reduction in HEL cells, Davis strain. Conditions: Human betaherpesvirus 5, HEL; Table 2; reduce virus plaque formation by 50%; virus input 100 PFU; read-out: IC50 CMV David strain. It is filed as cell-based, human cytomegalovirus (CMV).
Another series relates to CMV AD-169 strain. Description: Anti-CMV activity: plaque reduction in HEL cells, AD-169 strain. It is filed as cell-based, human cytomegalovirus (CMV). As to conditions: for IC50: Human betaherpesvirus 5, AD169, HEL, Table 2, reduce virus plaque formation by 50%, virus input 100 PFU, read-out: IC50 CMV AD-169 Strain.
Setting [7] is: 50% inhibitory concentration, cell proliferation.

In turn, `CO[C@@H]1[C@@H](OC)[C@H](c2ccccc2)O[C@@H]2CO[C@@H](c3ccccc3)O[C@@H]12` [KPE00001015] returned an EC50 in the series on HSV-2 (G) above 80 µg/mL. For the same compound, the results for the activity at 25 ppm in [1], in [4] and in series [5] were 66%, 66.6% and 87.2%, respectively. Further, the CC50 at 3 days in [2] is above 50 µg/mL. Also, in series [3] (setting [7]), the IC50 came out at 81 ± 10 µg/mL (≈ 227 µM). Further, the “activity against a yeast, in words” value in series [4] (conclusion in text on Table 5) is recorded as “best activity”. The “Cytotoxicity Cell morphology (MCC)” value with HEL cells came to 50 μg/ml.
`CO[C@@H]1[C@@H](OC)[C@H](Sc2ccccc2)O[C@@H]2COC(=O)CCCC/C=C/CCCCC(=O)O[C@@H]12` [KPE00001016.1] registered a melting point of 60 to 61 °C. In addition, the EC50 in the series on HSV-2 (G) is above 3.2 µg/mL. Moreover, the “cytostatic activity, in words” value in [6] was “good cytostatic activity”. Moreover, the activity at 25 ppm in [1] was 74%. Moreover, in the series with CMV Davis strain, the IC50 is 10 µg/mL (≈ 20.3 µM). For the same compound, the IC50 in [3] (setting [7]) was determined as 23 ± 0.5 µg/mL (≈ 46.7 µM). Moreover, the activity at 25 ppm in [4] is 98.4%. In addition, the IC50 with CMV AD-169 strain is 10 µg/mL (≈ 20.3 µM). The “anti-viral activity against CMV, in words” value with CMV AD-169 strain (strain not named) is “especially active”. Besides, the activity at 25 ppm in [5] came to 76.4%.
`CO[C@@H]1[C@@H](OC)[C@H](Sc2ccccc2)O[C@@H]2COC(=O)CCCC/C=C\CCCCC(=O)O[C@@H]12` [KPE00001016.2] had a melting point of 87 to 88 °C. For the same compound, the EC50 in the series with HSV-2 (G) was above 3.2 µg/mL. Moreover, in [1], the activity at 25 ppm stood at 58%. For the same compound, the IC50 in the series with CMV Davis strain is above 20 µg/mL. Also, the IC50 in series [3] (setting [7]) is 36 ± 16 µg/mL (≈ 73.1 µM). Moreover, the activity at 25 ppm in [4] worked out at 85%. In addition, the IC50 with CMV AD-169 strain was above 20 µg/mL. The activity at 25 ppm in [5] came out at 87%.
Consider `CO[C@@H]1[C@@H](OC)[C@H](Cc2ccccc2)O[C@@H]2CO[C@@H](c3ccccc3)O[C@@H]12` [KPE00001019], for which the EC50 in the series on HSV-2 (G) was above 80 µg/mL. In addition, the activity at 25 ppm amounted to 66% in series [1], 98.5% in series [4] and 94.3% in series [5]. In series [2], the CC50 at 3 days was above 50 µg/mL. Also, in series [3] (setting [7]), the IC50 was at least 200 µg/mL. In addition, the “Cytotoxicity Cell morphology (MCC)” value in the series with HEL cells was found to be 20 μg/ml.
As to `CO[C@@H]1[C@@H](OC)[C@H](Cc2ccccc2)O[C@@H]2COC(=O)CC/C=C/CCC(=O)O[C@@H]12` [KPE00001022], the EC50 with HSV-2 (G) came out at 80 µg/mL (≈ 191 µM). Further, the “cytostatic activity, in words” value in series [6] is reported as “good cytostatic activity”. Besides, the activity at 25 ppm is 67% in [1], 91.5% in series [4] and 94% in series [5]. The IC50 in series [3] was 48 ± 15 µg/mL (≈ 115 µM); with CMV AD-169 strain, above 5 µg/mL.
For `CO[C@@H]1[C@@H](OC)[C@H](Cc2ccccc2)O[C@@H]2COC(=O)CCCCCCCCC=CCCCCCCCCC(=O)O[C@@H]12` [KPE00001031E], the melting point was in the range of 45 to 46 °C. For the same compound, the EC50 in the series with HSV-2 (G) is above 400 µg/mL. Besides, in [1], the activity at 25 ppm was determined as 62%. Moreover, the IC50 in [3] (setting [7]) was at least 200 µg/mL. In addition, the activity at 25 ppm in series [4] was found to be 88.3%. Besides, in the series on CMV AD-169 strain, the IC50 is above 5 µg/mL. Also, in series [5], the activity at 25 ppm worked out at 91.7%.
